Holding throughout (test): inhibition of tumour cell growth, NCI panel, 48 h
Test [1] deals with TK-10 renal.
In test [2] the test system is SW-620 colon.
Test [3] deals with CCRF-CEM leukemia.
Test [4] relates to OVCAR-5 ovarian.
For test [5], the system named is RXF 393 renal.
Test [6] concerns OVCAR-3 ovarian.
Test [7] concerns K-562 leukemia.
The test system of test [8] is HL-60(TB) leukemia.
In test [9] the test system is A498 renal.
Test [10] deals with SK-MEL-28 melanoma.

Where “and” joins values, the source holds several entries; their conditions need not be identical. Equal values may be shown once.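 Growth conditions: 96-well plates. Treatment: test compound, 48 hours, 5 concentrations. Analysis: linear interpolation between bracketing concentrations; unreached endpoints set to highest concentration. The concentration for 50% growth inhibition is given as GI50. At the TGI there is no net growth.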

Take `CC(=O)O[C@H]1C(=O)[C@@]2(C)C([C@H](OC(=O)c3ccccc3)[C@]3(O)C[C@H](OC(=O)[C@H](O)[C@@H](NC(=O)c4ccc(Cl)cc4)c4ccccc4)C(C)=C1C3(C)C)C1(OC(C)=O)CO[C@@H]1C[C@@H]2O` (some centres not stated): the GI50 was 0.254 µM in test [1], 0.157 µM in [5] and 11.1 µM in test [9]. Besides, the TGI is 25 µM and 47.7 µM in test [1]; 25 µM and > 100 µM in test [2]; 52.2 µM in [3]; 25 µM in [4]; 0.108 µM in test [6]; > 25 µM and 12.5 µM in test [7]. Besides, the TGI in test [8] is 0.00466 µM; in test [9], 25 µM and > 100 µM; in test [10], 25 µM.
Take `O=[N+]([O-])/C=C/c1cn(CCCCCCCCn2cc(/C=C/[N+](=O)[O-])c3ccccc32)c2ccccc12`: the TGI in test [1], in test [2], in test [3], in [4], in test [5] and in test [6] was over 10 µM each time. Besides, the TGI in test [7], in test [8], in [9] and in test [10] was over 10 µM in each case.
Take `O=[N+]([O-])/C(=C/C=C/c1ccccc1)c1ccccc1`: the GI50 in test [1] is 2.04 µM; in test [2] it was 1.79 µM; in [3], 0.764 µM; in test [4], 2.38 µM; in [5], 1.81 µM; in test [6], 1.85 µM. Further, the GI50 in test [7] was 1.7 µM; in [8] it was 1.09 µM; in test [9], 3.78 µM; in [10] it was 2.09 µM. The TGI in test [1] was determined as 4.46 µM; in [2], 3.67 µM; in test [3] it was 2.39 µM; in test [4], 6.06 µM; in test [5], 3.84 µM; in test [6] it was 3.29 µM. In addition, the TGI is 5 µM in test [7], 3.55 µM in test [8], 9.66 µM in test [9] and 4.23 µM in [10].
For the compound `CCOC(=O)c1cnc2c(ccc3ncccc32)c1OCC`, the TGI in test [1], in test [2], in test [3], in test [4], in [5] and in test [6] was over 100 µM each time. Also, the TGI in [7], in [8], in test [9] and in test [10] was over 100 µM throughout.
Take `Nc1nc2c([nH]1)c1[nH]c3ccccc3c1c1[nH]c3ccccc3c21`: the GI50 is 22.7 µM in test [1]; 3.31 µM in test [2]; 3.33 µM in test [3]; 16.1 µM in test [4]; 6.08 µM in [5]; 12.6 µM in [6]. For the same compound, the GI50 in test [7] is 2.23 µM; in test [8] it was 18.4 µM; in [9] it was 18.8 µM; in test [10], 11.5 µM. Further, the TGI in test [1] stood at 37.7 µM; in test [2], 12.4 µM; in test [3], 12.4 µM; in test [4], 30 µM; in test [5] it was 19.4 µM; in test [6], 25.7 µM. The TGI in test [7] was 5.09 µM; in test [8] it was 38.1 µM; in [9], 35 µM; in [10] it was 23.7 µM.
As for `COc1ccc(-c2nc3sccn3c2/C=C/C(=O)c2cc(OC)c(OC)c(OC)c2)cc1`, the GI50 in test [1] was 5 µM; in test [2], 3.01 µM; in test [3], 3.4 µM; in [4], 3.68 µM; in test [5] it was 3.09 µM; in test [6] it was 2.34 µM. In addition, the GI50 in test [7] is 2.43 µM; in [8], 3.33 µM; in test [9] it was 2.52 µM; in [10] it was 4.05 µM. The TGI in [1] is over 100 µM; in test [2], over 100 µM; in test [3], 53.1 µM; in test [4] it was over 23.9 µM; in test [5], over 100 µM; in [6], 7.37 µM. In addition, the TGI was over 23.9 µM in test [7], 82.3 µM in [8], 6.41 µM in test [9] and 51.8 µM in test [10].
For `OCCN1CCCN(CCCN2c3ccccc3Sc3ccc(C(F)(F)F)cc32)CC1`, the GI50 in test [1] is 1.68 µM; in test [2], 1.86 µM; in [3], 2.42 µM; in test [4] it was 3.21 µM; in test [5], 2.59 µM; in test [6], 3.84 µM. The GI50 in test [7] was 1.57 µM; in test [8], 1.91 µM; in test [9], 1.69 µM; in test [10], 1.64 µM. Moreover, the TGI in [1] is 3.58 µM; in [2], 4.15 µM; in test [3], 5.76 µM; in [4] it was 15 µM; in test [5] it was 11.2 µM; in [6], 13.9 µM. Also, the TGI was 3.23 µM in [7], 3.74 µM in test [8], 5.63 µM in test [9] and 3.03 µM in test [10].
For the compound `Clc1cc(Cl)cc(Nc2ccc3c(OCCCN4CCOCC4)cccc3n2)c1`, the GI50 was 2.38 µM in [1]; 1.86 µM in [2]; 2.36 µM in test [3]; 1.83 µM in test [4]; 2.26 µM in test [5]; 2.92 µM in test [6]. Also, the GI50 was 2.21 µM in test [7], 2.11 µM in test [8], 2.39 µM in [9] and 1.65 µM in test [10]. Also, the TGI was found to be 5 µM in [1]; 3.69 µM in test [2]; 6.36 µM in [3]; 4.37 µM in test [4]; 5.14 µM in test [5]; 9.63 µM in test [6]. Besides, the TGI in [7] turned out to be 5.71 µM; in test [8], 6.34 µM; in test [9] it was 12.1 µM; in test [10] it was 3.3 µM.
For `CN(C)CCC(/C=C/c1ccccc1)=N\Nc1c(F)c(F)c(F)c(F)c1F`, the TGI in test [1], in test [2], in test [3], in test [4], in test [5] and in [6] was over 100 µM throughout. Further, the TGI in test [7] was over 100 µM; in test [8], 37.8 µM; in [9], over 100 µM; in [10], over 100 µM.

(Values after PubChem BioAssay (NCI).)
